Test results as given in patent publication US20080194574A1, “Pyrazine Derivatives As Effective Compounds Against Infectious Diseases” (AXXIMA PHARMACEUTICALS AG, priority 2003, published 2008).

Target: T1, viral kinase pUL-97 (Human cytomegalovirus, UniProt P16788)
T1 construct: The pUL-97 gene was cloned into a baculovirus vector; GST (glutathione S-transferase) (N); made in house; host or cells: Sf9 insect cells, baculovirus
Assay: UL97 kinase assay on Immobilon plate
Assay type: biochemical
Conditions: inhibition of UL 97 kinase activity; class by IC50 / % inhibition at 10 μM or 100 μM; read-out: Activity Class [A, B, C]
Summary of the method: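 GST-pUL97 from baculovirus-infected Sf9 cells phosphorylated myelin basic protein with ATP (3 μM in the added assay buffer) and γ-[33P]ATP in Tris-HCl pH 7.5 buffer with MnCl2 and DTT. Reaction ran 1 h at 30 °C with graded compound concentrations and was stopped with EDTA. 33P incorporation was measured by scintillation after filter capture and phosphoric acid washes.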

T1 sequence (P16788 whole entry): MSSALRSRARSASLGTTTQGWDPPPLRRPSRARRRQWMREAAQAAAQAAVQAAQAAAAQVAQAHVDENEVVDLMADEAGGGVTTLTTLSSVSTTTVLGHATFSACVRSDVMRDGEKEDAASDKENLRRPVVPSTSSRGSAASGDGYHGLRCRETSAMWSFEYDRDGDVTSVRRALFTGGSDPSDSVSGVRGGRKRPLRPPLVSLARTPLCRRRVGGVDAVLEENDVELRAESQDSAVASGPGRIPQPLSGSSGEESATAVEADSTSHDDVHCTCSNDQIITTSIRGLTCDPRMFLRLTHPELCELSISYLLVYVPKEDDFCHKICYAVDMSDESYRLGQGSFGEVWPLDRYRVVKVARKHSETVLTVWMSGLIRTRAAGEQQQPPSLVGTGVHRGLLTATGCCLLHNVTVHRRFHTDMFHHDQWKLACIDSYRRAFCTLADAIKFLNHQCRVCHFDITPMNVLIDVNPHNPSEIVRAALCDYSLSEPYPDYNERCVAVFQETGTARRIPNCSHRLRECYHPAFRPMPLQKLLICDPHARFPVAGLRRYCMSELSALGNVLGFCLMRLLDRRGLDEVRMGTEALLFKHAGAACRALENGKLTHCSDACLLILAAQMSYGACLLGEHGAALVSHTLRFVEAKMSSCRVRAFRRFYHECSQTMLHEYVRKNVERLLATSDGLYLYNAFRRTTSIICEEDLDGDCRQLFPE

IC50 [µM]	SMILES
10 to 100	Cc1cc(C)cc(-c2cncc(N3CCN(c4ccc(F)cc4F)CC3)n2)c1 [compound 209, 4-(2,4-Difluoro-phenyl)-6′-(3,5-dimethyl-phenyl)-3,4,5,6-tetrahydro-2H-[1,2′]bipyrazinyl]
1 to 10	Fc1ccc(N2CCN(c3cncc(-c4ccc(C(F)(F)F)cc4)n3)CC2)c(F)c1 [compound 210, 4-(2,4-Difluoro-phenyl)-6′-(4-trifluoromethyl-phenyl)-3,4,5,6-tetrahydro-2H-[1,2′]bipyrazinyl]
10 to 100	Fc1cccc(-c2cncc(N3CCN(c4ccc(F)cc4F)CC3)n2)c1 [compound 211, 4-(2,4-Difluoro-phenyl)-6′-(3-fluoro-phenyl)-3,4,5,6-tetrahydro-2H-[1,2′]bipyrazinyl]
10 to 100	CCOc1ccccc1-c1cncc(N2CCN(c3ccc(C(C)=O)cc3)CC2)n1 [compound 212, 1-{4-[6′-(2-Ethoxy-phenyl)-2,3,5,6-tetrahydro-[1,2′]bipyrazinyl-4-yl]-phenyl}-ethanone]
1 to 10	COc1ccc2cc(-c3cncc(N4CCN(c5ccc(C(C)=O)cc5)CC4)n3)ccc2c1 [compound 213, 1-{4-[6′-(6-Methoxy-naphthalen-2-yl)-2,3,5,6-tetrahydro-[1,2′]bipyrazinyl-4-yl]-phenyl}-ethanone]
10 to 100	CC(=O)c1ccc(N2CCN(c3cncc(-c4cccc(F)c4)n3)CC2)cc1 [compound 214, 1-{4-[6′-(3-Fluoro-phenyl)-2,3,5,6-tetrahydro-[1,2′]bipyrazinyl-4-yl]-phenyl}-ethanone]
10 to 100	CC(=O)c1ccc(N2CCN(c3cncc(-c4ccccc4Oc4ccccc4)n3)CC2)cc1 [compound 215, 1-{4-[6′-(2-Phenoxy-phenyl)-2,3,5,6-tetrahydro-[1,2′]bipyrazinyl-4-yl]-phenyl}-ethanone]
10 to 100	CN(C)c1ccc(-c2cncc(N3CCN(c4cccc(C(F)(F)F)c4)CC3)n2)cc1 [compound 216, Dimethyl-{4-[4-(3-trifluoromethyl-phenyl)-3,4,5,6-tetrahydro-2H-[1,2′]bipyrazinyl-6′-yl]-phenyl}-amine]
10 to 100	FC(F)(F)c1cccc(N2CCN(c3cncc(-c4ccccc4Oc4ccccc4)n3)CC2)c1 [compound 217, 6′-(2-Phenoxy-phenyl)-4-(3-trifluoromethyl-phenyl)-3,4,5,6-tetrahydro-2H-[1,2′]bipyrazinyl]
10 to 100	CC(=O)c1ccccc1-c1cncc(N2CCN(c3ccncc3)CC2)n1 [compound 218, 1-[2-(4-Pyridin-4-yl-3,4,5,6-tetrahydro-2H-[1,2′]bipyrazinyl-6′-yl)-phenyl]-ethanone]
1 to 10	Cc1cccc(-c2cncc(N3CCN(c4ccncc4)CC3)n2)c1 [compound 219, 4-Pyridin-4-yl-6′-m-tolyl-3,4,5,6-tetrahydro-2H-[1,2′]bipyrazinyl]
1 to 10	Cc1ccc(-c2cncc(N3CCN(c4ccncc4)CC3)n2)cc1 [compound 220, 4-Pyridin-4-yl-6′-p-tolyl-3,4,5,6-tetrahydro-2H-[1,2′]bipyrazinyl]
1 to 10	c1ccc2c(-c3cncc(N4CCN(c5ccncc5)CC4)n3)cccc2c1 [compound 221, 6′-Naphthalen-1-yl-4-pyridin-4-yl-3,4,5,6-tetrahydro-2H-[1,2′]bipyrazinyl]
1 to 10	c1ccc2c(-c3cncc(N4CCN(c5ccncc5)CC4)n3)csc2c1 [compound 222, 6′-Benzo[b]thiophen-3-yl-4-pyridin-4-yl-3,4,5,6-tetrahydro-2H-[1,2′]bipyrazinyl]
1 to 10	COc1ccc(N2CCN(c3cncc(-c4cccc(C)c4)n3)CC2)cc1OC [compound 223, 4-(3,4-Dimethoxy-phenyl)-6′-m-tolyl-3,4,5,6-tetrahydro-2H-[1,2′]bipyrazinyl]
1 to 10	COc1ccc(N2CCN(c3cncc(-c4ccc(C)cc4)n3)CC2)cc1OC [compound 224, 4-(3,4-Dimethoxy-phenyl)-6′-p-tolyl-3,4,5,6-tetrahydro-2H-[1,2′]bipyrazinyl]
10 to 100	COc1ccc(OC)c(-c2cncc(N3CCN(c4ccc(OC)c(OC)c4)CC3)n2)c1 [compound 225, 4-(3,4-Dimethoxy-phenyl)-6′-(2,5-dimethoxy-phenyl)-3,4,5,6-tetrahydro-2H-[1,2′]bipyrazinyl]
10 to 100	COc1ccc(N2CCN(c3cncc(-c4cccc(C)c4C)n3)CC2)cc1OC [compound 226, 4-(3,4-Dimethoxy-phenyl)-6′-(2,3-dimethyl-phenyl)-3,4,5,6-tetrahydro-2H-[1,2′]bipyrazinyl]
1 to 10	COc1ccc(N2CCN(c3cncc(-c4csc5ccccc45)n3)CC2)cc1OC [compound 227, 6′-Benzo[b]thiophen-3-yl-4-(3,4-dimethoxy-phenyl)-3,4,5,6-tetrahydro-2H-[1,2′]bipyrazinyl]
10 to 100	Cc1ccc(N2CCN(c3cncc(-c4cccc(C)c4)n3)CC2)cc1 [compound 228, 6′-m-Tolyl-4-p-tolyl-3,4,5,6-tetrahydro-2H-[1,2′]bipyrazinyl]
10 to 100	Cc1ccc(-c2cncc(N3CCN(c4ccc(C)cc4)CC3)n2)cc1 [compound 229, 4,6′-Di-p-tolyl-3,4,5,6-tetrahydro-2H-[1,2′]bipyrazinyl]

IC50 [µM]	SMILES
10 to 100	Cc1ccc(N2CCN(c3cncc(-c4cccc5ccccc45)n3)CC2)cc1 [compound 230, 6′-Naphthalen-1-yl-4-p-tolyl-3,4,5,6-tetrahydro-2H-[1,2′]bipyrazinyl]
10 to 100	Cc1ccc(N2CCN(c3cncc(-c4csc5ccccc45)n3)CC2)cc1 [compound 231, 6′-Benzo[b]thiophen-3-yl-4-p-tolyl-3,4,5,6-tetrahydro-2H-[1,2′]bipyrazinyl]
10 to 100	Cc1cccc(-c2cncc(N3CCN(c4ccc(F)cc4)CC3)n2)c1 [compound 232, 4-(4-Fluoro-phenyl)-6′-m-tolyl-3,4,5,6-tetrahydro-2H-[1,2′]bipyrazinyl]
1 to 10	Cc1ccc(-c2cncc(N3CCN(c4ccc(F)cc4)CC3)n2)cc1 [compound 233, 4-(4-Fluoro-phenyl)-6′-p-tolyl-3,4,5,6-tetrahydro-2H-[1,2′]bipyrazinyl]
10 to 100	COc1ccc(OC)c(-c2cncc(N3CCN(c4ccc(F)cc4)CC3)n2)c1 [compound 234, 6′-(2,5-Dimethoxy-phenyl)-4-(4-fluoro-phenyl)-3,4,5,6-tetrahydro-2H-[1,2′]bipyrazinyl]
1 to 10	Fc1ccc(N2CCN(c3cncc(-c4csc5ccccc45)n3)CC2)cc1 [compound 235, 6′-Benzo[b]thiophen-3-yl-4-(4-fluoro-phenyl)-3,4,5,6-tetrahydro-2H-[1,2′]bipyrazinyl]
10 to 100	CC(=O)c1ccccc1-c1cncc(N2CCN(c3cccc(Cl)c3)CC2)n1 [compound 236, 1-{2-[4-(3-Chloro-phenyl)-3,4,5,6-tetrahydro-2H-[1,2′]bipyrazinyl-6′-yl]-phenyl}-ethanone]
10 to 100	Cc1ccc(-c2cncc(N3CCN(c4cccc(Cl)c4)CC3)n2)cc1 [compound 237, 4-(3-Chloro-phenyl)-6′-p-tolyl-3,4,5,6-tetrahydro-2H-[1,2′]bipyrazinyl]
10 to 100	Fc1ccc(-c2cncc(N3CCN(c4cccc(Cl)c4)CC3)n2)cc1Cl [compound 238, 6′-(3-Chloro-4-fluoro-phenyl)-4-(3-chloro-phenyl)-3,4,5,6-tetrahydro-2H-[1,2′]bipyrazinyl]
10 to 100	Clc1cccc(N2CCN(c3cncc(-c4csc5ccccc45)n3)CC2)c1 [compound 239, 6′-Benzo[b]thiophen-3-yl-4-(3-chloro-phenyl)-3,4,5,6-tetrahydro-2H-[1,2′]bipyrazinyl]
10 to 100	COc1ccccc1N1CCN(c2cncc(-c3ccccc3C(C)=O)n2)CC1 [compound 240, 1-{2-[4-(2-Methoxy-phenyl)-3,4,5,6-tetrahydro-2H-[1,2′]bipyrazinyl-6′-yl]-phenyl}-ethanone]
10 to 100	COc1ccccc1N1CCN(c2cncc(-c3ccc(C)cc3)n2)CC1 [compound 241, 4-(2-Methoxy-phenyl)-6′-p-tolyl-3,4,5,6-tetrahydro-2H-[1,2′]bipyrazinyl]
10 to 100	COc1ccccc1N1CCN(c2cncc(-c3ccc(F)c(Cl)c3)n2)CC1 [compound 242, 6′-(3-Chloro-4-fluoro-phenyl)-4-(2-methoxy-phenyl)-3,4,5,6-tetrahydro-2H-[1,2′]bipyrazinyl]
10 to 100	COc1ccccc1N1CCN(c2cncc(-c3csc4ccccc34)n2)CC1 [compound 243, 6′-Benzo[b]thiophen-3-yl-4-(2-methoxy-phenyl)-3,4,5,6-tetrahydro-2H-[1,2′]bipyrazinyl]
10 to 100	Cc1cccc(-c2cncc(N3CCN(c4ccccc4)CC3)n2)c1 [compound 244, 4-Phenyl-6′-m-tolyl-3,4,5,6-tetrahydro-2H-[1,2′]bipyrazinyl]
1 to 10	Cc1ccc(-c2cncc(N3CCN(c4ccccc4)CC3)n2)cc1 [compound 245, 4-Phenyl-6′-p-tolyl-3,4,5,6-tetrahydro-2H-[1,2′]bipyrazinyl]
10 to 100	c1ccc(N2CCN(c3cncc(-c4cccc5ccccc45)n3)CC2)cc1 [compound 246, 6′-Naphthalen-1-yl-4-phenyl-3,4,5,6-tetrahydro-2H-[1,2′]bipyrazinyl]
1 to 10	c1ccc(N2CCN(c3cncc(-c4csc5ccccc45)n3)CC2)cc1 [compound 247, 6′-Benzo[b]thiophen-3-yl-4-phenyl-3,4,5,6-tetrahydro-2H-[1,2′]bipyrazinyl]
10 to 100	Cc1ccc(-c2cncc(N3CCN(c4ccccc4F)CC3)n2)cc1 [compound 248, 4-(2-Fluoro-phenyl)-6′-p-tolyl-3,4,5,6-tetrahydro-2H-[1,2′]bipyrazinyl]
10 to 100	Fc1ccccc1N1CCN(c2cncc(-c3cccc4ccccc34)n2)CC1 [compound 249, 4-(2-Fluoro-phenyl)-6′-naphthalen-1-yl-3,4,5,6-tetrahydro-2H-[1,2′]bipyrazinyl]
